# Test results taken from PMC12392461, “Beyond Estrogenicity: A Comparative Assessment of Bisphenol A and Its Alternatives in In Vitro Assays Questions Safety of Replacements” (Environmental Science & Technology, 2025).
# Read-outs that look alike come from different tables or passages of the source.
# Key:
# [1] = target: T1, Peroxisome proliferator-activated receptor γ (Homo sapiens, UniProt P37231); experiment: cell-based; conditions: for EC10, linear / logEC10 / EC10, linear transformed: PPARγ bioassay, dosing range all; for EC10, linear: linear model; for logEC10: log-logistic model; for EC10, PPARγ (M): 10% of maximum effect of rosiglitazone; for SR-ScorePPARγ: SR-Score, sigma k=1, x=5; for Specificity ratio (SRbaseline) SRPPARγ: against baseline cytotoxicity; for Specificity ratio (SRcytotoxicity) SRPPARγ: against experimental cytotoxicity; for EC10, PPARγ: effect; for log(1/EC10) PPARγ: input of the ToxPi score, values up to 1.00; for Emax: read-out: Emax%PPARγ
# T1 sequence (P37231 238-505 limits assumed): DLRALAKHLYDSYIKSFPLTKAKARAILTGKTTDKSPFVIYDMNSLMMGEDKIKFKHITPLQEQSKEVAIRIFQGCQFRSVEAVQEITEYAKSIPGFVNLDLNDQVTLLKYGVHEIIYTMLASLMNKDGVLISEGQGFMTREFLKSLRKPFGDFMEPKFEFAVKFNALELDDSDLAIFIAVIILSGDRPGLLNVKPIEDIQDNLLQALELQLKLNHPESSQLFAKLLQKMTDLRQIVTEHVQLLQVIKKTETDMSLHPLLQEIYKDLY
# Excerpt: All bioassay media components and the ERα-UAS-bla GripTite and PPARγ-UAS-bla cells were obtained from Thermo Fisher Scientific (Waltham, MA, USA). AREc32 reporter gene cells based on MCF7 were provided by C. Roland Wolf (Cancer Research UK); AhR CALUX cells (H4L7.5c2 derived from H4IIe) were provided by Michael Denison (UC Davis, USA); and SH-SY5Y cells were purchased from Sigma-Aldrich.
# (§1) Cell culture conditions and bioassay protocols including response detection are provided in Text S2.1–2.4 and Table S3. − Cell viability was determined from cell confluency using an IncuCyte S3 Live-Cell Analysis System (Sartorius AG, Essen, Germany) before and after exposure, except for SH-SY5Y cells (live–dead staining with Nuclear Green LcS1 and propidium iodide, Abcam, UK). For metabolic activation experiments, cell viability was assessed using the ToxBLAzer DualScreen Kit (Thermo Fisher Scientific) to capture the remaining toxicity in ERα-UAS-bla GripTite after treatment with the aCYP catalyst (details in Text S2.4).
# For ARE, the concentration that triggered an induction ratio of 1.5 (ECIR1.5) was used as the benchmark value, as detailed in Text S2.5. IC10 values also served as a threshold for data analysis in all assays; only concentrations below IC10 were considered when deriving EC10 or ECIR1.5.
# The maximum efficacy (Emax%) refers to the maximum of the log–logistic concentration–response curve attained by test chemicals compared to the reference chemical’s maximum and was obtained for both ERα and PPARγ. […]
# S2: Cell culture and bioassays
# S2.1: Cell Culturing Conditions
# All suppliers and sources are given in detail in SI-Excel S3. The bioassay media for the different assays were prepared as follows: Assay medium for ER alpha-UAS-bla GripTite (ERα) and […]
# 2% charcoal-stripped FBS, and 100 U/mL penicillin-streptomycin. […]
# S2.2: Cell Seeding and Incubation. For all bioassays, cell suspensions in the respective assay medium were dispensed into each well of 384-well plates using a MultiFlo Dispenser (Biotek, (now Agilent), Winooski, VT, U.S.). After seeding, the plates were incubated at 37° C and 5% CO₂ for […]. The final cell densities and plate types were as follows: Black poly-D-lysine […]
# 6500 cells/well, ERα: 5000 cells/well. White 384-well plates with a clear bottom (Product No. […]
# S2.3: Chemical Dosing and Assay Analysis Procedures.
# [2] = test system: ERα-UAS-bla GripTite cells; conditions: for TKcytotoxicity (TK-Ratio for cytotoxicity): IC10 before/after aCYP oxidation
# Procedure: as §1, with “S2.4). […]” for “S2.4).”
# The TK-Ratio method was used to evaluate the impact of abiotic CYP oxidation on the potency of tested compounds. […]
# For experiments with the preceding aCYP activation, ERα cell viability was additionally calculated from the readout of the ToxBLAzer reagent. The ToxBLAzer assay was conducted following the manufacturer's instructions (Thermo Fisher, Waltham, MA, U.S.).13 Fluorescence intensity was recorded at the start of the assay ( Fwavelength(0h)) and after a 2-hour incubation at […]
# eq. S11 for normalization.
# Cell viability = F665nm(2h, sample)-F665nm(0h, average cell-free) (S11) F665nm(2h, average unexposed)-F665nm(0h, average cell-free) […]
# the specific endpoint to avoid artifacts from cytotoxicity burst. 15
# S2.5: Concentration-response curves (CRCs)
# To avoid bias from cytotoxicity burst at higher concentrations, all concentrations exceeding the IC10 for cytotoxicity were excluded in the CRC modeling of effects but otherwise cytotoxicity and effects were fitted with the same model equations (response stands for cytotoxicity or effect). For ERα, AhR, ARE and PPARγ preferably a linear model was fitted to the linear portion of CRC up to maximum 30% effect (eq. S12),16 but in some cases it was necessary to choose a sigmoidal log-concentration-response model, specifically a log-logistic model (eq. S13), to derive effect concentrations and cytotoxicity. […]
# This was done using the
# AutomatedBioassayScreening19 published by Braun et al.,20 which also included an algorithm to choose the best model between eq. S12 and eq. S13.
# Response (%) = slope × C (S12) […]
# logEC =logEC − 1 ∙log (max−min − 100%) (S14)
# [3] = Acidity constant (pKa) measurement, Sirius T3 UV-metric, and speciation at pH 7.4; conditions: for Double negative form (pH = 7.40) / Negative form (pH = 7.40) / Neutral form (pH = 7.40) / αneutral % (fraction of neutral species): from experimental pKa; for αneutral % (fraction of neutral species): pH 7.4; for pKa: pKa (Acid)
# Procedure: Physicochemical properties provide input parameters for the baseline toxicity model. Acidity constants (pK a) and octanol–water partition constants of the neutral species (K ow) were measured with a Sirius T instrument from Pion Inc. (Sussex, UK) (Text S1.2 and Table S1). A detailed description of the pK a and K ow measurements can be found in literature. , […]
# S1.2: pKa and log Kow measurements […]
# titrator (Pion Inc., Sussex, U.K.). A detailed description of the experimental procedure is available in the literature.1 In brief, each sample was prepared by mixing 5 µL of a 10 mM dimethyl sulfoxide (DMSO) stock solution with 25 µL of a phosphate buffer solution (14.4 mM […]
# A reference vial containing 5 µL of DMSO
# (Roth, A994-100 ML) and 25 µL of phosphate buffer was analyzed alongside each sample.
# The pKa values were determined using the automated UV-metric pKa protocol within the Sirius T3 Control software (version 2.0.0.0.). Each sample was subjected to three consecutive […]
# from 2 to 12 by stepwise addition of 0.5 M HCl or 0.5 M potassium hydroxide while recording […]
# UV absorbance. […]
# To ensure reproducibility, measurements were conducted on at least two
# [4] = Table S10, TKcytotoxicity-Ratio
# [5] = phosphate buffer with […] KCl, Sirius T3 titrator, second pKa column, experimental, this study
# [6] = phosphate buffer with […] KCl, Sirius T3 titrator, experimental, this study
# [7] = Table S11, TKcytotoxicity-Ratio
# [8] = second pKa column, experimental, this study
smiles,measurement,setting,value
CC1(C)[C@H](O)C(C)(C)[C@H]1O [Trans TMCD],"EC10, linear",[1],no effect
same,logEC10,[1],no effect
"CC(C)CC(C)(c1ccc(O)cc1)c1ccc(O)cc1 [BP-MIBK, 4,4'-(1,3-Dimethylbutylidene)diphenol]","EC10, linear",[1],no effect
same,logEC10,[1],no effect
same,TKcytotoxicity,[2]; human,0.48
"COC(=O)C(c1ccc(O)cc1)c1ccc(O)cc1 [Bz, Methyl bis(4-hydroxyphenyl)acetate]","EC10, linear",[1],no effect
same,logEC10,[1],no effect
same,TKcytotoxicity (TK-Ratio for cytotoxicity),[2],2.48 ± 0.69
same,TKcytotoxicity,[2]; [4],2.48
same,Double negative form (pH = 7.40),[3],3%
same,Negative form (pH = 7.40),[3],26%
same,Neutral form (pH = 7.40),[3],71%
same,αneutral % (fraction of neutral species),[3],71%
same,pKa,[3]; [5],8.34
same,pKa,[3]; [6],7.83
"CC(C)c1cc(C(C)(C)c2ccc(O)c(C(C)C)c2)ccc1O [BPG, 2,2-Bis(4-hydroxy-3-isopropylphenyl)propane]","EC10, PPARγ (M)",[1],1.17 × 10^–7 M
same,"EC10, linear transformed",[1],1.17E-07
same,"EC10, linear",[1],1.61E-07
same,logEC10,[1],-6.93
same,SR-ScorePPARγ,[1],1.00
same,Specificity ratio (SRbaseline) SRPPARγ,[1],12.28
same,Specificity ratio (SRcytotoxicity) SRPPARγ,[1],54.95
same,"EC10, PPARγ",[1],117 nM
same,log(1/EC10) PPARγ,[1],0.98
same,Emax,[1],22%
same,TKcytotoxicity,[2]; [4],0.62
same,TKcytotoxicity,[2]; [7],0.67
same,Double negative form (pH = 7.40),[3],4.07e-6%
same,Negative form (pH = 7.40),[3],0.0363%
same,Neutral form (pH = 7.40),[3],100%
same,αneutral % (fraction of neutral species),[3],100%
same,pKa,[3]; [8],11.3
same,pKa,"[3]; experimental, this study",10.8
"CC(C)(c1ccc(O)cc1)c1ccc(O)cc1 [BPA, 4,4'-(Propane-2,2-diyl)diphenol, reference compound]","EC10, linear",[1],no effect
same,logEC10,[1],no effect
same,PPARγ activation,[1]; at concentrations up to IC10,did not activate PPARγ
same,TKcytotoxicity (TK-Ratio for cytotoxicity),[2],≤ 2
same,TKcytotoxicity,[2]; [4],1.13
same,TKcytotoxicity,[2]; [7],0.63
same,pKa (Acid),[3],9.85
same,Double negative form (pH = 7.40),[3],9.99e-6%
same,Neutral form (pH = 7.40),[3],100%
same,αneutral % (fraction of neutral species),[3],100%
same,pKa,[3],8.78
"CC(C)(c1cc(Br)c(O)c(Br)c1)c1cc(Br)c(O)c(Br)c1 [TBBPA, 3,3',5,5'-Tetrabromobisphenol A]",TKcytotoxicity,[2]; [4],0.52
same,Double negative form (pH = 7.40),[3],56%
same,Negative form (pH = 7.40),[3],39%
same,Neutral form (pH = 7.40),[3],4.58%
same,αneutral % (fraction of neutral species),[3],5%
same,pKa,[3]; [5],7.24
same,pKa,[3]; [6],6.47
"CC1(C)C(O)C(C)(C)C1O (racemic) [r-TMCD, 2,2,4,4-Tetramethyl-1,3-cyclobutanediol (racemate)]","EC10, linear",[1],no effect
same,logEC10,[1],no effect
same,Double negative form (pH = 7.40),[3],0%
same,Negative form (pH = 7.40),[3],0%
same,Neutral form (pH = 7.40),[3],100%
same,αneutral % (fraction of neutral species),[3],100%
"CC(C)(c1ccc(OCC2CO2)cc1)c1ccc(OCC2CO2)cc1 (stereo not shown) [BADGE, Bisphenol A diglycidyl ether]","EC10, linear",[1],no effect
same,logEC10,[1],no effect
same,Double negative form (pH = 7.40),[3],0%
same,Negative form (pH = 7.40),[3],0%
same,Neutral form (pH = 7.40),[3],100%
same,αneutral % (fraction of neutral species),[3],100%
"C=CCOc1ccc(S(=O)(=O)c2ccc(O)cc2)cc1 [BPS-MAE, 4-[[4-(Allyloxy)phenyl]sulfonyl]phenol]","EC10, PPARγ (M)",[1],5.57 × 10^–7 M
same,"EC10, linear transformed",[1],5.57E-07
same,"EC10, linear",[1],6.41E-07
same,logEC10,[1],-6.25
same,SR-ScorePPARγ,[1],1.00
same,"EC10, PPARγ",[1],557 nM
same,log(1/EC10) PPARγ,[1],0.88
same,Emax,[1],22%
same,TKcytotoxicity,[2]; [4],2.91
"CC1(C)[C@H](O)C(C)(C)[C@H]1O [t-TMCD, trans-2,2,4,4-Tetramethyl-1,3-cyclobutanediol]",TKcytotoxicity,[2]; [4],1.74
same,Negative form (pH = 7.40),[3],1e-6%
same,Neutral form (pH = 7.40),[3],100%
same,αneutral % (fraction of neutral species),[3],100%
same,pKa,[3]; [6],15.4
"Oc1ccc(C2(c3ccc(O)cc3)CCCCC2)cc1 [BPZ, 1,1'-Bis(4-hydroxyphenyl)cyclohexane]",TKcytotoxicity,[2]; [4],0.53
same,Double negative form (pH = 7.40),[3],0.00202%
same,Negative form (pH = 7.40),[3],1.11%
same,Neutral form (pH = 7.40),[3],99%
same,αneutral % (fraction of neutral species),[3],99%
same,pKa,[3]; [8],10.1
same,pKa,"[3]; experimental, this study",9.35
"O=S(=O)(c1ccc(O)cc1)c1ccc(O)cc1 [BPS, 4,4'-Sulfonyldiphenol]","EC10, linear",[1],1.02E-05
same,logEC10,[1],no effect
same,pKa (Acid),[3],8.16
same,Double negative form (pH = 7.40),[3],9%
same,Negative form (pH = 7.40),[3],52%
same,Neutral form (pH = 7.40),[3],39%
same,αneutral % (fraction of neutral species),[3],39%
same,pKa,[3],7.28
"Cc1cc(Cc2cc(C)c(O)c(C)c2)cc(C)c1O [TMBPF, Bis(3,5-dimethyl-4-hydroxyphenyl)methane]","EC10, PPARγ (M)",[1],3.29 × 10^–7 M
same,"EC10, linear transformed",[1],3.29E-07
same,"EC10, linear",[1],5.55E-07
same,logEC10,[1],-6.48
same,SR-ScorePPARγ,[1],0.98
same,Specificity ratio (SRbaseline) SRPPARγ,[1],13.64
same,Specificity ratio (SRcytotoxicity) SRPPARγ,[1],8.97
same,"EC10, PPARγ",[1],329 nM
same,log(1/EC10) PPARγ,[1],0.92
same,Emax,[1],18%
same,TKcytotoxicity,[2]; [4],0.35
